Measurements: ChEMBL document CHEMBL1135414, “Structure-activity relationships at human and rat A2B adenosine receptors of xanthine derivatives substituted at the 1-, 3-, 7-, and 8-positions” (J Med Chem, 2002)

What was measured:
[1] = target: T1, Adenosine receptor A2b (Rattus norvegicus, UniProt P29276); test: Inhibition of […] binding to rat Adenosine A2B receptor expressed in HEK cells; assay type: cell-based, HEK293
T1 sequence (P29276 whole entry): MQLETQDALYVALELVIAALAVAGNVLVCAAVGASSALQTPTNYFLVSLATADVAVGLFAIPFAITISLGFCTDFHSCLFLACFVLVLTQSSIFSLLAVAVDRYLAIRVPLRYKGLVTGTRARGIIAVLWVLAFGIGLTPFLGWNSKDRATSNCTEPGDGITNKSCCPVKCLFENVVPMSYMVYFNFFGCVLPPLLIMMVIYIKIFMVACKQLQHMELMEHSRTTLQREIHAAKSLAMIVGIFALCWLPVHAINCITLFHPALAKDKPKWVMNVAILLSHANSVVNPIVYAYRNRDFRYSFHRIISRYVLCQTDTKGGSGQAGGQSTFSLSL

[2] = target: T2, Adenosine receptor A2b (Homo sapiens, UniProt P29275); test: Binding affinity at human Adenosine A2B receptor expressed in HEK293 cells, using [125I]ABOPX as radioligand; assay type: cell-based
T2 sequence (P29275 whole entry): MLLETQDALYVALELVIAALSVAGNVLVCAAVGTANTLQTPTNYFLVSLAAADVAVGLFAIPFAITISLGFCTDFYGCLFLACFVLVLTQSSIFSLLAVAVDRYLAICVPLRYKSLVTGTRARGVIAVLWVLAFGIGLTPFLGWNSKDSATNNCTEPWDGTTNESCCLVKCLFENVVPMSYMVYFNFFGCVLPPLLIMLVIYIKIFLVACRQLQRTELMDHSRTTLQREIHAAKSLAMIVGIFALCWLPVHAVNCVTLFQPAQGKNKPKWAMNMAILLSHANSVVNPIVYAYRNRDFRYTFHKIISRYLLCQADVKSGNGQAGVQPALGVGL

[3] = target: T3, Adenosine receptor A1 (Rattus norvegicus) (UniProt P25099); test: Percent displacement of [3H]-R-PIA from rat Adenosine A1 receptor in HEK293 cells; assay type: cell-based
T3 sequence (whole entry): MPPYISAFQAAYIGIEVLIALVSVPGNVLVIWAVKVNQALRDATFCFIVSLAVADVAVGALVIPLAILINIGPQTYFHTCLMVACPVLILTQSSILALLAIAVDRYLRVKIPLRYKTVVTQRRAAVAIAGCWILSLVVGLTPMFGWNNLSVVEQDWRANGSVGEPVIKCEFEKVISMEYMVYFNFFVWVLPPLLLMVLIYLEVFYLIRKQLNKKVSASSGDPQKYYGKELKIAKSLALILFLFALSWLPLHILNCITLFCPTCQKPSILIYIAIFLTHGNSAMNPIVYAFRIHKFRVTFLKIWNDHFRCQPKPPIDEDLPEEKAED

[4] = target: Adenosine receptor A2a (Rattus norvegicus, UniProt P30543); test: Binding affinity at rat Adenosine A2A receptor by [3H]-CGS- 21680 displacement.
Chain of Adenosine receptor A2a (P30543 whole entry): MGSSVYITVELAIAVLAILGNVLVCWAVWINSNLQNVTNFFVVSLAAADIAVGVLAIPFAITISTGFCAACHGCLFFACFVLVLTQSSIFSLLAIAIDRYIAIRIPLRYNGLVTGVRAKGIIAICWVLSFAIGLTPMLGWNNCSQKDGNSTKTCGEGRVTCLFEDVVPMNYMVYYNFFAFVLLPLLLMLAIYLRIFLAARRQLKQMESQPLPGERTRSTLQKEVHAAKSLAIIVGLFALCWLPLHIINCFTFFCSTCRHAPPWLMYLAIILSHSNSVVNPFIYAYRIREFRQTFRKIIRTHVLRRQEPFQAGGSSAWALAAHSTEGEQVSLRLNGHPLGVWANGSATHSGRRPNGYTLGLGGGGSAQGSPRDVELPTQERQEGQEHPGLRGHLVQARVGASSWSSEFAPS

[5] = organism: Rattus norvegicus; test: Relative affinities for rat Adenosine A1 and Adenosine A2B receptors
[6] = organism: Rattus norvegicus; test: Relative affinities for rat Adenosine A2A and Adenosine A2B receptors
[7] = target: T4, Adenosine receptor A1 (Rattus norvegicus, UniProt P25099); test: Binding affinity of [3H]R-PIA for rat Adenosine A1 receptor in HEK293 cells
T4 sequence (P25099 whole entry): T3 sequence (whole entry)

[8] = target: T5, Adenosine receptor A3 (Homo sapiens, UniProt P0DMS8); test: Inhibition of [125I]I-AB-MECA binding to human Adenosine A3 receptor
T5 sequence (P0DMS8 whole entry): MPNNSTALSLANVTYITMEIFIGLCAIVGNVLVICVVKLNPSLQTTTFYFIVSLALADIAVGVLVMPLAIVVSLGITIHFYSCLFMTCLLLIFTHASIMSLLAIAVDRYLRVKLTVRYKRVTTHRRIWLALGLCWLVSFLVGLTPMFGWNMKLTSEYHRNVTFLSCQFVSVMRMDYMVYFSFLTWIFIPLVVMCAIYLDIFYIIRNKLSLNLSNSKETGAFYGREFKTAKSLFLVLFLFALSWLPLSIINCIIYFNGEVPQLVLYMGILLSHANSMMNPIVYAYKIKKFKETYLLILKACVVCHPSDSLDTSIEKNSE

C=CCn1c(=O)c2c(nc(-c3ccccc3)n2CCCl)n(C)c1=O
Ki [1]: 1700 nM | Ki [2]: 311 nM | Displacement [3]: 35% | Ki [4]: 3570 nM | Ratio [5]: > 6 | Ratio [6]: 2.1

CCCn1c(=O)[nH]c2nc[nH]c2c1=O
Ki [1]: 1880 nM | Ki [7]: 3310 nM | Ki [2]: 360 nM | Ki [8]: 2370 nM
